Key:
Topoisomerase IIα [1] = target: T1, Topoisomerase IIα (Homo sapiens, UniProt P11388); test: Topo II decatenation assay; format: biochemical; set-up: key: ‘—’ = Not active; conditions: unit not given; kDNA substrate; compound at 1, 10, 25 and 50 μM in protocol
Description: (§1) Topisomerase Decatenation Assay.
(§2) This method uses catenated DNA substrate prepared from the kinetoplast of the insect trypanosome Crithidia fasciculata. Upon incubation with topo II, which engages DNA in a double stranded breakage-reunion cycle, DNA minicircles are released. Addition of topo-inhibiting drugs may prevent decatenation.
(§3) Topo II Decatenation Assay Protocol
(§4) This assay is the same as the Topo II Relaxation assay except that the pBR 322 Plasmid DNA is replaced with kDNA.
(§5) Results are included in Table 3 below

Topoisomerase IIα [2] = target: T1, Topoisomerase IIα; test: Topo II cleavage assay; format: biochemical; set-up: key: ‘—’ = Not active; conditions: unit not given; compound at 1, 10, 25 and 50 μM in protocol
Description: Topo II 5 μl (1-1 μg); […] Results are included in Table 3 below.

Topoisomerase IIβ [3] = target: T2, Topoisomerase IIβ (Homo sapiens, UniProt Q02880); test: Topo II decatenation assay; format: biochemical; conditions: unit not given; kDNA substrate; compound at 1, 10, 25 and 50 μM in protocol
Description: as §1, §2, §3, §4, §5

[4] = tested on: DNA: Calf thymus sodium salt; test: DNA binding assay, ethidium bromide displacement; set-up: key: NB = Not binding; conditions: concentration required to displace 50% of the ethidium bromide; 20 μM DNA, 2 μM dye
Description: The propensity of selected compounds to bind to DNA in the absence of topos was measured in order to identify compounds that would bind weakly, or not at all. […] A […] was used determine binding constants of the compound to DNA by displacement of either ethidium bromide (an intercalator) or Hoechst dye 33258 (a groove binder) which form a DNA-bound fluorescent complex measured by fluorescence spectroscopy.
DNA Binding Assay Protocol
In order to detect the strength and mode of anthraquinone compound binding to DNA the displacement of known DNA binders was detected by measuring the fluorescence of a DNA/fluorescent compound complex. The addition of known concentrations of ethidium bromide, an interchelator, and Hoescht Dye, a groove binder, cause a fluorescent DNA/binder complex that can be detected and the fluorescence quantified. The addition of anthraquinone compounds displaces the interchelators or groove binders, depending on the compound mode of DNA binding, and therefore reduces the fluorescence accordingly. The preferred binding action of compounds can be quantified by determining the reduction in fluorescence resulting from a given concentration of compound. The quantification of a compounds ability to bind to DNA is expressed, as the concentration required to displace 50% of the ethidium bromide or Hoescht Dye, thus reducing the fluorescence by 50%. Therefore, the values produced are QE50 for ethidium, bromide, or QH50 for Hoescht Dye.
Compound: 300, 60, 10 and 10/6gM (1.66 μM) solution concentrations were prepared for use in the assay to produce a range of compound. Concentrations. 100, 200 and 300 μl of each dilution were used in the assay reaction. This provides a range of concentrations: −30, 20, 10, 6, 4, 2, 1, 0.67, 0.33, 0.17, 0.11, 0.06, 0.00 μM in the assay environment. Intermediate concentrations can be utilised to enhance the accuracy of the displacement concentration determination.
Buffer: 100 mM Tris, NaCI 500 mM. DNA: Calf thymus sodium salt. Stock solution of 200 μM was prepared in 10× assay buffer. Dilution of DNA therefore provided the correct concentration of assay buffer in the assay cell.300 μg DNA was used in 3 ml reaction mixture therefore 20 μM DNA concentration. Hoescht Dye 2 μM final concentration, therefore 100 μl of a 60 μM stock solution was added to a 3 ml assay. Ethidium Bromide 2 μM final concentration therefore 100 μl of a 60 μM stock solution was added to a 3 ml assay. Distilled H2O Water was added to produce 3 ml reaction volume. Order of addition: 1. DNA, 2. Water, 3. Drug, 4. Dye
The assay was completed with both Hoescht Dye and Ethidium. Bromide for each compound. The ethidium bromide is a DNA inter-chelator, Hoescht Dye is a minor groove binder. 100, 200 and […] of the lowest compound dilution was assayed. This procedure was repeated with all further dilution's. This provided a curve of fluorescence intensity decrease with increasing compound concentration. QE50 and QH50 values were determined by extrapolating the concentration of compound at the point where the fluorescence intensity was reduced by 50%. Controls involving compound only and ethidium. bromide or Hoechst Dye without compound were carried out for each experiment. Two readings for each concentration of compound were performed per experiment, each experiment was repeated at least three times. Fluorometer: Perkin Elmer Luminescence Spectrometer LS 50B.

Topoisomerase IIα [5] = target: T1, Topoisomerase IIα; test: Topo II relaxation assay; format: biochemical; set-up: key: ‘—’ = Not active; conditions: unit not given; compound at 1, 10, 25 and 50 μM in protocol
Description: (§6) Topo II Relaxation Assay Protocol
(§7) 10×Topo II Relaxation Buffer
(§8) 500 mM Tris-HCl (pH 7.5); 100 mM mgCI2; 50 mM EDTA; 300 mg/mI BSA; 10 mM DTT; −20° C.

Topoisomerase IIβ [6] = target: T2, Topoisomerase IIβ; test: Topo II relaxation assay; format: biochemical; set-up: key: ‘—’ = Not active; conditions: unit not given; compound at 1, 10, 25 and 50 μM in protocol
Description: as §6, §7, §8

[7] = In vitro cytotoxicity against CHO cell lines (MTT assay); format: cell-based; conditions: Chinese hamster, MTT assay after 24 hours exposure
Description: Chinese Hamster Ovary (CHO) cell lines were grown as monolayers in Ham's F-10 nutrient mixture supplemented with 5% foetal calf serum and 5% heat-inactivated newborn calf serum. All experiments were performed on cells within 10 passages of each other, during which period phenotypes remained stable. All anthraquinone/amino acid conjugates were dissolved in water and not more than 0.01% DMSO. Activity was determined by an MTT assay after 24 hours exposure using essentially the method of Plumb et al (Plumb, J., Milroy, R and Kaye, S. B., 1989, Effects of the pH dependence of 3-([…])-2,5-diphenyl tetrazolium bromide formazan absorption on chemosensitivity, Cancer Research, 49: 4435-4440). Characteristics of the cell lines are described in full in Cummings et al 1996, Biochem.Pharmacol. 52: 979-990.

T2 sequence (Q02880 whole entry): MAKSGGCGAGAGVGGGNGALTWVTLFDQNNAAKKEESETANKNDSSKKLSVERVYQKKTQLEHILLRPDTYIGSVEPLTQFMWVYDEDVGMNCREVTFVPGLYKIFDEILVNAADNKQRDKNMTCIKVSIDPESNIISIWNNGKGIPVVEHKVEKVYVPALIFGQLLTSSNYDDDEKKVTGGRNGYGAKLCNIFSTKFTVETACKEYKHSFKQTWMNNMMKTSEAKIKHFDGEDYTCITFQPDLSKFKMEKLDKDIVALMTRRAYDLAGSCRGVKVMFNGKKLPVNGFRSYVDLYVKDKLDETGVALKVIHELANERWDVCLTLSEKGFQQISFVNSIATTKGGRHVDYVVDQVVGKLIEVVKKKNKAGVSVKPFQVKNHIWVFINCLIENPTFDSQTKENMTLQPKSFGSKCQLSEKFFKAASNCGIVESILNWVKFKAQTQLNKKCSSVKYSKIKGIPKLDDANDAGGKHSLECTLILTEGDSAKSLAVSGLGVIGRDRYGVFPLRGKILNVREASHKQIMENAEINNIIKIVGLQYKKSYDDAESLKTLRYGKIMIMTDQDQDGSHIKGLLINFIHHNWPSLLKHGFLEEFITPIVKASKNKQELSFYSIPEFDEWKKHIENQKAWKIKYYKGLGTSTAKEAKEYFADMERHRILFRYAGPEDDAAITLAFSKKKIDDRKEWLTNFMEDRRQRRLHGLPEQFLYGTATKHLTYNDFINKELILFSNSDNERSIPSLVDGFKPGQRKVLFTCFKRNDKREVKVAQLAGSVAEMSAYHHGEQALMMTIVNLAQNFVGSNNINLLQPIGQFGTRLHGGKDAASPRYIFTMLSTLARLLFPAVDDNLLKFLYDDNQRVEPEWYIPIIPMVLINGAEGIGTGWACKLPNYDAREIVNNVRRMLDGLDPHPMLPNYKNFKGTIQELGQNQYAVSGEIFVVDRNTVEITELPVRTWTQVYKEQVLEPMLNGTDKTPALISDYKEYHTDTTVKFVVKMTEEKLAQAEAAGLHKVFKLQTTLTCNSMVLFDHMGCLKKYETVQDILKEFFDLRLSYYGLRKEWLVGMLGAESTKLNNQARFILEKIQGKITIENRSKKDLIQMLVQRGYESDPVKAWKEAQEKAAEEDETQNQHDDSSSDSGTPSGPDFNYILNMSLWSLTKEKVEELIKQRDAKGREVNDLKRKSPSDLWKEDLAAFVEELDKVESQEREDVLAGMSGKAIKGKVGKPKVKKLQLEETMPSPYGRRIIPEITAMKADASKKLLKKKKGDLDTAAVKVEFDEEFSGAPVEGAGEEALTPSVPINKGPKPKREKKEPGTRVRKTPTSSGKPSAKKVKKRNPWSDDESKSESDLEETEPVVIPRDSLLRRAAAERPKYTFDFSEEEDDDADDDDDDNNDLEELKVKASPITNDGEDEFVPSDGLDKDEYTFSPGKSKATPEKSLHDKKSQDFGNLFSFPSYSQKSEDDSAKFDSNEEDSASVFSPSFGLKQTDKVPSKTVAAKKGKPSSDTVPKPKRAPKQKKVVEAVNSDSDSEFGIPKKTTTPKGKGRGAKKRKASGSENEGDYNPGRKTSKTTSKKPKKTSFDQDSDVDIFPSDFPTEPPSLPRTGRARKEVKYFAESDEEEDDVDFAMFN
T1 sequence (P11388 whole entry): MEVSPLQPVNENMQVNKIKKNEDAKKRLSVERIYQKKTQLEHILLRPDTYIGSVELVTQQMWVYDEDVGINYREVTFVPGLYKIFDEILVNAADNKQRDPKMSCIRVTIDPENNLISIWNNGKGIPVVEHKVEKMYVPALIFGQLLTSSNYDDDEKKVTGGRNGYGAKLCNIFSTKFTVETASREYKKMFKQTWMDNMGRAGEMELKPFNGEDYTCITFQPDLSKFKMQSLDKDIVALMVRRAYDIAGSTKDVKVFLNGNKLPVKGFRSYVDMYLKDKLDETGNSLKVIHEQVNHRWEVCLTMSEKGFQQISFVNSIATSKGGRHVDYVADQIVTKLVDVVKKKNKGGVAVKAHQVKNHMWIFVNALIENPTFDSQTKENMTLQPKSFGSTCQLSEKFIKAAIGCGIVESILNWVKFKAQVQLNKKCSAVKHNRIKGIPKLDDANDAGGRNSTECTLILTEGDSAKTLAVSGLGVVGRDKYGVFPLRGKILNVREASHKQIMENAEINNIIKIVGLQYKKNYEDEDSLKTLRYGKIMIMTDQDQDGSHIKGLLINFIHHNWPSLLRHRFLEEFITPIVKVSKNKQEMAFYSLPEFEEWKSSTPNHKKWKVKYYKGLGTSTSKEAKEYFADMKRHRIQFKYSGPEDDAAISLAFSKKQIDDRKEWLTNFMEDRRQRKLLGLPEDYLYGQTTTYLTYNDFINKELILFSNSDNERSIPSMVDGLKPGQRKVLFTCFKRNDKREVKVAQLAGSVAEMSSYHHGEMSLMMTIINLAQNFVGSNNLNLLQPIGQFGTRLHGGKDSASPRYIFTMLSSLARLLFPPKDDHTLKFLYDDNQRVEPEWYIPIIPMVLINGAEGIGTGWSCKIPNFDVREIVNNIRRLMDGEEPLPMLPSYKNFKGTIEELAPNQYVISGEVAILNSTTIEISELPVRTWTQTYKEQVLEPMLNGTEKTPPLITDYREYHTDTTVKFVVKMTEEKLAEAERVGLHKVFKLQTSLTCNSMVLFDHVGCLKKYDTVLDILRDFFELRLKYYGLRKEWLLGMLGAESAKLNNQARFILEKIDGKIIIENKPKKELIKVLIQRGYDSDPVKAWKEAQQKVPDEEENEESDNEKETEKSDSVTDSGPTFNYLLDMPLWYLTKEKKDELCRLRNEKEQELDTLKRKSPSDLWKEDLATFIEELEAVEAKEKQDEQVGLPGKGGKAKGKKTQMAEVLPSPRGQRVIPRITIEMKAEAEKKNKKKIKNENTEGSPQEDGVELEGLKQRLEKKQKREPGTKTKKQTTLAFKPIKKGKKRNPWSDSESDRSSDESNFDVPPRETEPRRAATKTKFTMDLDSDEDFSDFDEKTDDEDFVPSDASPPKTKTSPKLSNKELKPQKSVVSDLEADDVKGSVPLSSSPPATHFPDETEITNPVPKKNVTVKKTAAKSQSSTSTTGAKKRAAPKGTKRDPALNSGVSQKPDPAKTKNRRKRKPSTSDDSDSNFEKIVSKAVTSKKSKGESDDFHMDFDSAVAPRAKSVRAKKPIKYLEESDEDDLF

Compound | TopIIα Decat. (Topoisomerase IIα [1]) | TopIIα Cleave. (Topoisomerase IIα [2]) | TopIIβ Decat. (Topoisomerase IIβ [3]) | QE50 Intercalating [4] | TopIIα Relax. (Topoisomerase IIα [5]) | TopIIβ Relax. (Topoisomerase IIβ [6]) | IC50 at 24 h ([7]; CHO-ADR-1 cells, ADR line) [µM] | IC50 at 24 h ([7]; CHO-ADR-r cells, ADR line) [µM] | IC50 at 24 h ([7]; CHO-K1 cells) [µM]
C[C@H](N)C(=O)OCCCCNc1cccc2c1C(=O)c1ccccc1C2=O.O=C(O)C(F)(F)F [Example 43, 1-[4-(L-alanyloxy)butylamino]anthracene-9,10-dione trifluoroacetate] | — | — | 25 | NB | — | 15 | 6.6 | 25.2 | 54
C[C@@H](N)C(=O)OCCCCNc1cccc2c1C(=O)c1ccccc1C2=O.O=C(O)C(F)(F)F [Example 45, 1-[4-(D-alanyloxy)butylamino]anthracene-9,10-dione trifluoroacetate] | — | — | 20 | NB | — | 25 | 46.3 | 31.5 | 40.5

— patent US20030203975A1, “Anti-cancer agents” (priority 1998, published 2003)
